pEC50: −log10 of the molar value.
system: Plasmodium falciparum; experiment: Antimalarial activity against blood stage chloroquine-resistant Plasmodium falciparum Dd2 infected in human erythrocytes assessed as inhibition of parasite growth incubated for 72 hrs by SYBR Green I dye based staining analysis; type: functional, organism-based; details: Dd2, Erythrocyte

SMILES	pEC50
[C-]#[N+]c1ccccc1-c1ccccc1	4.97
[C-]#[N+]c1ccccc1/C=C(\CC)c1ccccc1	4.98
[C-]#[N+]c1ccccc1/C=C(\CCC)c1ccccc1	5.51
[C-]#[N+]c1ccccc1/C=C(\CCCC)c1ccccc1	5.28
[C-]#[N+]c1ccccc1C=C(c1ccccc1)c1ccccc1	5.44
[C-]#[N+]c1ccccc1/C=C(\CC)c1ccc(F)cc1	5.01
[C-]#[N+]c1ccccc1/C=C(\CC)c1ccc(C(F)(F)F)cc1	5.11
[C-]#[N+]c1ccccc1/C=C(\CC)c1cccc(C(F)(F)F)c1	5.27
[C-]#[N+]c1ccccc1/C=C/c1ccccc1	4.94
[C-]#[N+]c1ccccc1/C=C/c1ccc(OC)cc1	5.51
[C-]#[N+]c1ccccc1/C=C/c1cccc(OC)c1	5.19
[C-]#[N+]c1ccccc1/C=C/c1ccccc1OC	4.66
[C-]#[N+]c1ccccc1/C=C/c1ccc(F)cc1	6.25
[C-]#[N+]c1ccccc1/C=C/c1ccccc1F	5.43
[C-]#[N+]c1ccccc1/C=C/c1cccc(F)c1	4.91
[C-]#[N+]c1ccccc1/C=C/c1ccc(C(F)(F)F)cc1	5.24
[C-]#[N+]c1ccccc1/C=C/c1cccc(C(F)(F)F)c1	6.57
[C-]#[N+]c1ccccc1/C=C/c1ccccc1C(F)(F)F	5.37
[C-]#[N+]c1ccccc1/C=C/c1ccccn1	5.12
[C-]#[N+]c1cccc(/C=C/c2ccccn2)c1	5.01
[C-]#[N+]c1ccc(/C=C/c2ccccn2)cc1	4.99
[C-]#[N+]c1ccccc1/C=C/c1cccnc1	4.89
[C-]#[N+]c1cccc(/C=C/c2cccnc2)c1	6.16

SMILES	pEC50
[C-]#[N+]c1ccc(/C=C/c2cccnc2)cc1	5.29
[C-]#[N+]c1ccccc1/C=C/c1ccncc1	5.43
[C-]#[N+]c1ccc(/C=C/c2ccncc2)cc1	7.06
[C-]#[N+]c1cccc(/C=C/c2ccccc2)c1	5.27
[C-]#[N+]c1ccc(/C=C/c2ccccc2)cc1	5.56
CC/C(=C\c1ccccc1)c1ccccc1	< 4.00
[C-]#[N+]c1ccccc1-c1ccc2ccccc2c1	5.21
[C-]#[N+]c1ccc(/C=C/c2cc(OC)cc(OC)c2)cc1	5.79
[C-]#[N+]c1ccc(/C=C/c2ccc([N+]#[C-])cc2)cc1	7.57
[C-]#[N+]c1ccc(CCc2ccc([N+]#[C-])cc2)cc1	6.66
[C-]#[N+]c1ccc(/C=C/c2ccco2)cc1	5.58
[C-]#[N+]c1ccc(/C=C/c2ccc(Cl)c(Cl)c2)cc1	5.49
[C-]#[N+]c1ccc(/C=C/c2ccc(OC)cc2)cc1	5.64
[C-]#[N+]c1ccc(/C=C/c2ccccc2[N+]#[C-])cc1	7.17
[C-]#[N+]c1ccc(/C=C/c2ccc3ccccc3n2)cc1	5.28
[C-]#[N+]c1ccc(/C=C/c2ccnc3ccccc23)cc1	5.16
[C-]#[N+]c1ccc(/C=C/c2cccc([N+]#[C-])c2)cc1	6.58
[C-]#[N+]c1ccc(CCc2ccncc2)cc1	6.25
[C-]#[N+]c1ccc(/C=C/c2ccc(C(F)(F)F)cc2)cc1	5.66
[C-]#[N+]c1ccc(/C=C/c2ccc(F)cc2)cc1	5.33
[C-]#[N+]c1ccc(CCc2ccccc2[N+]#[C-])cc1	6.36
[C-]#[N+]c1ccc(/C=C/c2cccc(OC)c2)cc1	6.00
[C-]#[N+]c1ccc(CCc2cccc([N+]#[C-])c2)cc1	5.56

system: not listed separately; experiment: Selectivity index, ratio of IC50 for cytotoxicity against human KB cells to EC50 for antiplasmodial activity against Plasmodium falciparum W2; type: toxicity, cell-based; details: read-out: Selectivity Index

SMILES	selectivity ratio
[C-]#[N+][C@]1(C)[C@H](C)C[C@@H]2C[C@H](C)[C@H]3CC[C@](C)([N+]#[C-])[C@H]4CC[C@H]1[C@@H]2[C@H]34 [DIISOCYANOADOCIANE]	1000

system: Plasmodium falciparum; experiment: Antimalarial activity against Plasmodium falciparum W2 assessed as inhibition of parasite growth; type: functional, organism-based; details: not given

SMILES	pEC50
CC1=C[C@]2(CC1)[C@H](C)CC[C@@H](C(C)C)[C@H]2N=C=S	4.93
[C-]#[N+][C@@H]1[C@H](C(C)C)CC[C@@H](C)[C@@]12C=C(C)CC2 [AXISONITRILE 3]	7.15
[C-]#[N+][C@]1(C)[C@H](C)C[C@@H]2C[C@H](C)[C@H]3CC[C@](C)([N+]#[C-])[C@H]4CC[C@H]1[C@@H]2[C@H]34 [DIISOCYANOADOCIANE]	7.89

system: not listed separately; experiment: Selectivity index, ratio of MTD for cytotoxicity against human HaCaT cells to EC50 for antimalarial activity against blood stage chloroquine-resistant Plasmodium falciparum Dd2 infected in human erythrocytes; type: toxicity, cell-based; details: read-out: Selectivity Index

SMILES	selectivity ratio
[C-]#[N+]c1ccc(/C=C/c2ccncc2)cc1	1450
[C-]#[N+]c1ccc(/C=C/c2ccc([N+]#[C-])cc2)cc1	4740
